pIC50: −log10 of the molar value.

The subject of assay [1] is IFN gamma release in PBMCs. Nature of the assay: IFN gamma release in CD3/CD28 stimulated PBMC cells (assay (c)). The assay is classed as cell-based. The following applies: Homo sapiens, read-out: IC50 Values in PBMCs IFNγ. As for the experimental part: PBMCs from healthy subjects are separated from whole blood using a density gradient (Lymphoprep, Axis-Shield Healthcare). Cells are added to a 96 well plate pre-coated with a mixture of CD3/CD28 monoclonal antibodies (0.3 μg/mL eBioscience and 3 μg/mL BD Pharmingen respectively). Compound at the desired concentration is then added to the wells and the plate left for 3 days under normal tissue culture conditions. Supernatants are harvested and IL-2 and IFN gamma release determined by Sandwich ELISA (Duo-set, R&D System). The IC50 is determined from the dose response curve.

The target of a further assay is c-Src (Homo sapiens (Human), UniProt P12931). In words: c-Src enzyme inhibition (FRET, Z-LYTE). In kind it is biochemical. The method, then: The enzyme inhibitory activities of compounds disclosed herein are determined by FRET using synthetic peptides labelled with both donor and acceptor fluorophores (Z-LYTE, Invitrogen Ltd., Paisley, UK).
The inhibitory activities of compounds of the invention against c-Src and Syk enzymes (Invitrogen), are evaluated in a similar fashion to that described hereinabove. The relevant enzyme (3000 ng/mL or 2000 ng/mL respectively, 2.5 μL) is incubated with the test compound (either 1 μg/mL, 0.1 μg/mL, 0.01 μg/mL, or 0.001 μg/mL, 2.5 μL each) for 2 hr at RT. The FRET peptides (8 μM. 2.5 μL), and appropriate ATP solutions (2.5 μL, 800 μM for c-Src, and 60 μM ATP for Syk) are then added to the enzymes/compound mixtures and the mixture incubated for 1 hr. Development reagent (protease, 5 μL) is added for 1 hr prior to detection in a fluorescence microplate reader (Varioskan® Flash, ThermoFisher Scientific).
In all cases, the site-specific protease cleaves non-phosphorylated peptide only and eliminates the FRET signal. Phosphorylation levels of each reaction are calculated using the ratio of coumarin emission (donor) over fluorescein emission (acceptor), for which high ratios indicate high phosphorylation and low ratios indicate low phosphorylation levels. […]

The test system of a further assay is IL-8 release in PBMCs. Nature of the assay: LPS-induced IL-8 release in PBMC cells (assay (b)). The assay is classed as cell-based. The conditions noted are these: Homo sapiens, LPS-stimulated PBMCs. The source says: Peripheral blood mononuclear cells (PBMCs) from healthy subjects are separated from whole blood using a density gradient (Lymphoprep, Axis-Shield Healthcare). […] The supernatant is harvested for determination of IL-8 and TNFα concentrations by sandwich ELISA (Duo-set, R&D systems) and read on the fluorescence microplate reader (Varioskan® Flash, ThermoFisher Scientific).

Chain of c-Src (P12931 whole entry, looked up): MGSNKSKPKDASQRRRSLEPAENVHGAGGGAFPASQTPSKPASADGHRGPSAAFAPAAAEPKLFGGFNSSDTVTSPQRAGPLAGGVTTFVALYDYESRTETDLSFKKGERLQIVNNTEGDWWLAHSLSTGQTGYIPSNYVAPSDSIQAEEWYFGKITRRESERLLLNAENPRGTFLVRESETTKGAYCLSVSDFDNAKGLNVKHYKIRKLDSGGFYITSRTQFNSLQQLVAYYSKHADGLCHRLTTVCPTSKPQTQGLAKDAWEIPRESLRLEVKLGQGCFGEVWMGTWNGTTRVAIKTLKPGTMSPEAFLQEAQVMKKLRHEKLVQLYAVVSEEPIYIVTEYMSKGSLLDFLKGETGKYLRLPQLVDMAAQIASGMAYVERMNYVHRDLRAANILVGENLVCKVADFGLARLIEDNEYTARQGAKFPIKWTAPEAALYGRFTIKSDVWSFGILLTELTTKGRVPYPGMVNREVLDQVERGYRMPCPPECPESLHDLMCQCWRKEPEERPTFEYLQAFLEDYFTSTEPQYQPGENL

Regarding `COc1cc(Nc2cc(Oc3ccc(NC(=O)Nc4cc(C(C)(C)C)cc(NS(C)(=O)=O)c4OC)c4ccccc34)ccn2)cc(OCCOCCOCC(=O)O)c1` [Example 3], the negative logarithm of the IC50 (pIC50) (usually −log10 of the IC50, conventionally taken in molar units) in assay [1] was 7.50; on c-Src, 7.74; in the assay on IL-8 release in PBMCs, 7.76.
